# Measurements reported in patent US8445207B2, “Genes based on thalidomide, valproic acid and methotrexate treatment for screening of drug inducing teratogenicity and screening method using thereof” (priority 2009, dated 2013).
# Test system: JEG-3 (human placental choriocarcinoma cell line)
# Experiment: Oligo microarray gene expression in drug-treated JEG-3 (Cy5 treated / Cy3 control)
# Format: cell-based
# Description: Thalidomide, valproic acid, and methotrexate were treated to human placental choriocarcinoma cell line at the concentrations determined above (Inhibition concentration: the concentration that can kill approximately 30% of the total cells, that is the concentration of 70% viability, IC30). mRNA was extracted from the drug treated cell line, followed by synthesis of cDNA which was labeled with Cy5. The non-treated control was labeled with Cy3. The fluorescence labeled cDNA was hybridized with 41K (thalidomide), 44K (valproic acid, methotrexate) human whole genome oligomicroarray chips (Agilent, USA), followed by fluorescent image scanning to analyze gene expression patterns (see FIG. 4). Volcano Plot of each substance was also attached. Y axis indicates probability (generally converted by −log 10). X axis indicates differential expression, which is presented by log-ratio.
# Total RNA was separated from the treated cell by using trizol reagent (Invitrogen Life Technologies, USA) according to the manufacture's instructions, followed by purification using RNeasy mini kit (Qiagen, USA). Genomic DNA was eliminated during RNA purification using RNase-free DNase set (Qiagen, USA).
# 30 μg of the total RNA obtained above and 2 μg (1 μg/μl) of oligo (dT) primer were mixed, followed by reaction at 65° C. for 10 minutes. Annealing was performed in ice right after the reaction. Reagents were prepared as shown in Table 1 for reverse transcription of the annealed RNA.
# The total RNA separated from the control group JEG-3 cells was labeled with Cy3-dUTP (green) and the total RNA separated from the experiment group JEG-3 cells treated with thalidomide, valproic acid and methotrexate was labeled with Cy5-dUTP (red). At this time, the two samples were mixed and purified by Microcon YM-30 column (Millipore, USA).
# Hybridization and washing were performed by the manufacturer's (GenoCheck, Korea) instructions. Particularly, hybridization was performed in a 62° C. oven for 12 hours. As a DNA microarray chip, 44 k whole human genome oligo microarray (Agilent, USA) was used. After washing (2 minutes with 2×SSC/0.1% SDS, three minutes with 1×SSC, 2 minutes with 0.2×SSC), the slide was dried by centrifugation at 800 rpm for 3 minutes.
# Hybridization image on the slide was scanned with Genepix 4000B (Axon Instruments, USA). Fluorescence image of the chip on which non-hybridized genes had been washed out was obtained by using laser fluorescence scanner. Green fluorescence image indicates the activity of gene specifically expressed in the control group and red fluorescence image indicates the activity of gene specifically expressed in the experimental group. […] Scanned image was analyzed by using GenePix 4.1 software (Axon Instruments, USA) to calculate gene expression rate.
# [1] = out of 21797 (thalidomide), 21921 (valproic acid), 24006 (methotrexate) genes
# [2] = treated at IC30, up-regulated gene, (h) Nervous system development
smiles,measurement,setting,value
"CCCC(CCC)C(=O)O [VPA, valproic acid]","cDNA microarray (Cy3/Cy5 ratio), KIAA0310",GenBank AB002308,1.59
same,"cDNA microarray (Cy3/Cy5 ratio), ATP10B",GenBank AB018258,2.03
same,"cDNA microarray (Cy3/Cy5 ratio), TTF2",GenBank AB209845,1.81
same,"cDNA microarray (Cy3/Cy5 ratio), TncRNA",GenBank AF001893,3.61
same,"cDNA microarray (Cy3/Cy5 ratio), C4orf19",GenBank AK001879,1.87
same,"cDNA microarray (Cy3/Cy5 ratio), CYP19A1",GenBank AK023571,1.78
same,"cDNA microarray (Cy3/Cy5 ratio), SLC40A1",GenBank AK023574,1.7
same,"cDNA microarray (Cy3/Cy5 ratio), ABTB2",GenBank AK095632,1.6
same,"cDNA microarray (Cy3/Cy5 ratio), TUBB3",GenBank AK122757,1.7
same,"cDNA microarray (Cy3/Cy5 ratio), MGC27016",GenBank AK125877,2.62
same,"cDNA microarray (Cy3/Cy5 ratio), GLCCI1",GenBank AK126731,2.27
same,"cDNA microarray (Cy3/Cy5 ratio), TFCP2L4",GenBank BC036890,3.12
same,"cDNA microarray (Cy3/Cy5 ratio), RGS2",GenBank BC042755,3.04
same,"cDNA microarray (Cy3/Cy5 ratio), SIAT7A",GenBank BC063830,1.69
same,"cDNA microarray (Cy3/Cy5 ratio), B7-H4",GenBank BX648021,0.1
same,"cDNA microarray (Cy3/Cy5 ratio), COBLL1",GenBank BX649112,1.52
same,"cDNA microarray (Cy3/Cy5 ratio), CGA",GenBank NM_000735,2.14
same,"cDNA microarray (Cy3/Cy5 ratio), PARP1",GenBank NM_001618,0.61
same,"cDNA microarray (Cy3/Cy5 ratio), SERPINB9",GenBank NM_004155,3.02
same,"cDNA microarray (Cy3/Cy5 ratio), ST8SIA4",GenBank NM_005668,1.79
same,"cDNA microarray (Cy5 treated / Cy3 control ratio), ABL1",GenBank NM_007313,0.3
same,"cDNA microarray (Cy3/Cy5 ratio), GRLF1",GenBank NM_024342,0.55
same,"cDNA microarray (Cy3/Cy5 ratio), LGP1",GenBank NM_032484,0.52
same,"cDNA microarray (Cy3/Cy5 ratio), NCOA3",GenBank NM_181659,1.62
same,"cDNA microarray (Cy3/Cy5 ratio), SR140",GenBank XM_031553,0.36
same,"cDNA microarray (Cy3/Cy5 ratio), SLC7A8",GenBank Y18483,2.48
same,"Ratio of intermediate value, FLJ13855","Genbank AK091644, drug at IC30",0.44
same,"Ratio of intermediate value, GRLF1","Genbank BI494022, NM_024342, drug at IC30",0.55
same,"Ratio of intermediate value, B7-H4","Genbank BX648021, drug at IC30",0.10
same,"Ratio of intermediate value, PARP1","Genbank NM_001618, drug at IC30",0.61
same,"Ratio of intermediate value, ABL1","Genbank NM_007313, drug at IC30",0.30
same,"Ratio of intermediate value, LGP1","Genbank NM_032484, drug at IC30",0.52
same,"Ratio of intermediate value, SR140","Genbank XM_031553, drug at IC30",0.36
same,genes down-regulated (ratio of intermediate value less than 0.666),"JEG-3, drug at IC30, 48 hours",5.5%
same,genes up-regulated (ratio of intermediate value more than 1.5),"JEG-3, drug at IC30, 48 hours",5.54%
same,number of genes down-regulated,[1],1196
same,number of genes up-regulated,[1],1215
same,"Ratio of intermediate value, gene ALDH5A1 (NM_170740, ALDEHYDE DEHYDROGENASE 5 FAMILY, MEMBER A1 (SUCCINATE-SEMIALDEHYDE DEHYDROGENASE))",[2],4.68
same,"Ratio of intermediate value, gene ALS2 (NM_020919, AMYOTROPHIC LATERAL SCLEROSIS 2 (JUVENILE))",[2],2.40
same,"Ratio of intermediate value, gene C22orf9 (AY509035, ROUND-ABOUT, AXON GUIDANCE RECEPTOR, HOMOLOG 3 (DROSOPHILA))",[2],2.30
same,"Ratio of intermediate value, gene DLX2 (AB208823, NM_004405, DISTAL-LESS HOMEOBOX 2)",[2],3.18
same,"Ratio of intermediate value, gene DPYSL2 (NM_001386, DIHYDROPYRIMIDINASE-LIKE 2)",[2],3.34
same,"Ratio of intermediate value, gene DPYSL5 (AL713706, DIHYDROPYRIMIDINASE-LIKE 5)",[2],2.57
same,"Ratio of intermediate value, gene EDG1 (BC018650, ENDOTHELIAL DIFFERENTIATION, SPHINGOLIPID G-PROTEIN-COUPLED RECEPTOR, 1)",[2],2.34
same,"Ratio of intermediate value, gene EFCBP1 (L20470, VERY LOW DENSITY LIPOPROTEIN RECEPTOR)",[2],2.10
same,"Ratio of intermediate value, gene FABP7 (NM_001446, FATTY ACID BINDING PROTEIN 7, BRAIN)",[2],9.51
same,"Ratio of intermediate value, gene FLJ20489 (AK056650, IMMUNOGLOBULIN SUPERFAMILY, MEMBER 9)",[2],2.50
same,"Ratio of intermediate value, gene FLJ31842 (AY643499, HEXOSAMINIDASE B (BETA POLYPEPTIDE))",[2],2.38
same,"Ratio of intermediate value, gene GJA1 (NM_000165, GAP JUNCTION PROTEIN, ALPHA 1, 43 KDA (CONNEXIN 43))",[2],4.30
same,"Ratio of intermediate value, gene GRB14 (BM906235, INHIBITOR OF DNA BINDING 3, DOMINANT NEGATIVE HELIX-LOOP-HELIX PROTEIN)",[2],4.33
